Assay results reported in patent US11135145B2 (priority 2015, dated 2021).
“And” between values parts separate entries of the source, which are not always exact repeats. Equal values may be shown once. Read-outs that look alike come from different tables or passages of the source.

Tests used:
[1] = tested on: NQO-1 antioxidant response element (NQO-1 - ARE); experiment: NQO-1-ARE luciferase reporter HepG2 cell line; type: cell-based, human; conditions: for NQO-1—ARE transcription in HepG2 cells (in words): 5 μM; for NQO-1 - ARE transcription, normalised to positive control (blank = 0%, 10 μM trans-resveratrol = 100%): 5 μM single compound; for NQO-1 - ARE transcription, normalised to positive control (blank = 0%, 10 μM trans-resveratrol = 100%) / NQO-1 - ARE transcription, normalised to positive control: HepG2, 6 hours, n = 3, ± SD
Procedure: A pGL4.22[luc2CP/puro] reporter vector containing NQO-1-ARE was transfected into the HepG2 cell line according to the method set forth in Xue et al (Biochem J 443: 213-222, (2012)). Transfected HepG2 cells were selected with puromycin (1 μg/ml). After culture for 3 weeks, puromycin-resistant cells were screened for luciferase activity after treatment with 4 μM sulforaphane for 6 hours. After validation of positive clones by measuring luciferase activity, the NQO-1-ARE stable cell line was expanded in selection media.
(§1) Stable transfectant cell line was incubated with and without test compounds for 6 hours in MEM with 10% fetal calf serum and 2 mM glutamine under an atmosphere of 5% CO2 in air, 100% humidity and 37° C. For the reporter assay, 100 μl Cell Culture Lysis Reagent (CCLR, Promega) was added to cell and shaken gently for 30 minutes. The mixture of cell lysate was centrifuged (12,000 g, 5 minutes, 4° C.) and an aliquot (20 μl) of supernatant used in the reporter assay. The luciferase activity was determined using a Luciferase Assay System (Promega). The luciferase response is given in Relative Light Units (RLU).
(§2) These were produced by transfection of a pGL4.22[luc2CP/puro] reporter vector containing NQO1-ARE or GLO1-ARE into the HepG2 cell line. Transfected HepG2 cells were selected with puromycin (1 μg/ml). After culture for 3 weeks, puromycin-resistant cells were screened for luciferase activity after treatment with 4 μM SFN for 6 h. After validation of positive clones by measuring luciferase activity, the stable cell line was expanded in selection media and thereafter used in studies for screening of bioactive compounds and synergism. Stable transfectant cell lines were incubated with and without bioactive compounds and combination of tRES and HESP (0.625-5.0 μM) for 6 h in MEM medium with 10% fetal calf serum and 2 mM glutamine under an atmosphere of 5% CO2 in air, 100% humidity and 37° C. This incubation period was optimum to judge initial rate of increase in transcriptional response in cells treated with compounds without increase in untreated controls. For the reporter assay, 100 μl Cell Culture Lysis Reagent (CCLR, Promega, Southampton, UK) was added to cell and shaken gently for 30 min. The mixture of cell lysate was centrifuged (12,000 g, 5 min, 4° C.) and an aliquot (20 μl) of supernatant used in the reporter assay. The luciferase activity was determined using a Luciferase Assay System (Promega). The luciferase response is given in Relative Light Units (RLU). Data are corrected for blank response and normalised to the highest effect (100%) achieved with 10 μM tRES. Data of normalised responses (blank=0%, 10 μM tRES=100%) for varied bioactive concentrations are fitted by non-linear regression to a dose-response curve, E=Emax×[Bioactive]^n/(EC50^n+[Bioactive]^n), solving for EC50 and n (logistic regression coefficient—also called the Hill coefficient). Nrf2-dependent transcriptional response was verified by siRNA silencing of Nrf2, as described in Xue et al., Biochem J 443, 213-222 (2012).

[2] = tested on: glyoxalase 1 antioxidant response element (GLO1-ARE); experiment: Stable transfectant GLO1-ARE luciferase reporter HepG2 cell line; type: cell-based, human; conditions: for GLO1-ARE transcription, normalised to positive control (blank = 0%, 10 μM trans-resveratrol = 100%): 5 μM single compound; for GLO1-ARE transcription, normalised to positive control (blank = 0%, 10 μM trans-resveratrol = 100%) / GLO1-ARE transcription, normalised to positive control: 6 hours, n = 3, ± SD; for Emax / EC50: Homo sapiens; for Emax: 10 μM tRES = 100%
Procedure: A pGL4.22[luc2CP/puro] reporter vector containing GLO1-ARE was transfected into the HepG2 cell line according to the method set forth in Xue et al. (Biochem. J., 443, 213-222 (2012)). Transfected HepG2 cells were selected with puromycin (1 μg/ml). After culture for 3 weeks, puromycin-resistant cells were screened for luciferase activity after treatment with 4 μM sulforaphane for 6 hours. After validation of positive clones by measuring luciferase activity, the GLO1-ARE stable cell line, R1F3, was expanded in selection media.
as §1, with “line R1F3” for “line”
as §2

HO-1 mRNA = experiment: HO-1 (HMOX1) mRNA by digital mRNA profiling (NanoString nCounter); type: cell-based; conditions: human dermal foreskin BJ fibroblasts; 5 μM of each compound; 12 hours; n = 3; ± SD
Procedure: (§3) Human dermal foreskin BJ fibroblasts at cumulative population doubling of 22 were purchased from the European Collection of Animal Cell Cultures (Porton Down, UK). They were cultured in Eagle's Minimum Essential Medium (MEM) with 10% fetal calf serum and 2 mM glutamine under an atmosphere of 5% CO2 in air, 100% humidity and 37° C.

NQO-1 mRNA = NQO-1 mRNA by digital mRNA profiling (NanoString nCounter); type: cell-based; conditions: human dermal foreskin BJ fibroblasts; 5 μM of each compound; 12 hours; n = 3; ± SD
Procedure: as §3

human BJ fibroblasts = experiment: Cytotoxicity in human BJ fibroblasts in primary culture; type: cell-based; conditions: for toxicity (cytotoxicity): individually or with 5 μM combination with primary bioactive compound, concentrations ≤20 μM
Procedure: Primary human aortal endothelial cells (HAEC) were purchased from Lonza (Slough, U.K). HAEC cells were grown in proprietary large vessel endothelial cell basal media supplemented with large vessel endothelial cell growth supplement (containing hydrocortisone, human epidermal growth factor, human fibroblast growth factor with heparin and in 2% (/v/) FBS), 25 μg/ml gentamicin and 50 ng/ml amphotericin B. Human dermal foreskin BJ fibroblasts at cumulative population doubling of 22 were purchased from the European Collection of Animal Cell Cultures (Porton Down, UK). They were cultured in MEM medium with 10% fetal calf serum and 2 mM glutamine under an atmosphere of 5% CO2 in air, 100% humidity and 37° C.

[3] = tested on: matrix metalloproteinase-3 protein (MMP); experiment: Cellular MMP-3 protein marker; type: cell-based, human; conditions: BJ fibroblasts; 5 μM
GSH = experiment: Cellular GSH content; type: cell-based, human; conditions: HAECs, BJ fibroblasts and HepG2 cells; 5 μM single compound
[4] = tested on: oxidised glutathione (GSSG); experiment: Cellular GSSG content; type: cell-based, human; conditions: HAECs, BJ fibroblasts and HepG2 cells; 5 μM single compound
ICAM1 mRNA = experiment: ICAM1 mRNA, focused quantitative mRNA profiling; type: cell-based, human; conditions: HAECs
[5] = HATFF study: total urinary metabolites of tRES and HESP (LC-MS/MS); type: in vivo, human; conditions: urine
[6] = dietary supplement of 150 mg HESP (Takumi et al.); cited from earlier work
[7] = reviewed in Vang et al. and Parhiz et al.; cited from earlier work
[8] = patients with type 2 diabetes; 1.7 g metformin per day; cited from earlier work
NQO-1 gene expression = conditions: WO 2014/095289 Example 4; cited from earlier work
HO-1 gene expression = conditions: WO 2014/095289 Example 4; cited from earlier work
human hair follicle = conditions: WO 2014/095289 Example 3; cited from earlier work
[9] = compound alone, HepG2 reporter, 6 h, read-out: EC50 for GLO1-ARE transcriptional response

## O=C1CC(c2ccc(O)c(O)c2)Oc2cc(O)cc(O)c21 (stereo not drawn) [Eriodictyol, 2-(3,4-Dihydroxyphenyl)-5,7-dihydroxy-4-chromanone]
[1]
  NQO-1—ARE transcription in HepG2 cells (in words): up-regulate
  NQO-1 - ARE transcription, normalised to positive control (blank = 0%, 10 μM trans-resveratrol = 100%): 95.3 ± 14.7%

## O=C1C[C@@H](c2ccc(O)cc2)Oc2cc(O)cc(O)c21 [Naringenin, naringenin, reference compound]
[1]
  NQO-1—ARE transcription in HepG2 cells (in words): does not up-regulate
  NQO-1 - ARE transcription, normalised to positive control (blank = 0%, 10 μM trans-resveratrol = 100%): −2.75 ± 5.24%

## Oc1cc(O)cc(/C=C/c2ccc(O)c(O)c2)c1 [Piceatannol, piceatannol]
[2]; HepG2
  GLO1-ARE transcription, normalised to positive control (blank = 0%, 10 μM trans-resveratrol = 100%): 61.3 ± 31.0%
[1]
  NQO-1 - ARE transcription, normalised to positive control (blank = 0%, 10 μM trans-resveratrol = 100%): 66.6 ± 2.4%

## COc1cc(/C=C/c2ccc(O)cc2)cc(OC)c1 [Pterostilbene, pterostilbene]
[2]; HepG2
  GLO1-ARE transcription, normalised to positive control (blank = 0%, 10 μM trans-resveratrol = 100%): 37.5 ± 18.3%
[1]
  NQO-1 - ARE transcription, normalised to positive control (blank = 0%, 10 μM trans-resveratrol = 100%): 41.8 ± 2.7%

## COc1ccc(C2CC(=O)c3c(O)cc(O)cc3O2)cc1O (stereo not drawn) [hesperetin, 2,3-Dihydro-5,7-dihydroxy-2-(3-hydroxy-4-methoxyphenyl)-4H-1-benzopyran-4-one]
HO-1 mRNA
  HO-1 mRNA (relative mRNA copy numbers as a % of vehicle control): 95.4 ± 3.7 % of vehicle control
NQO-1 mRNA
  NQO-1 mRNA (relative mRNA copy numbers as a % of vehicle control): 93.0 ± 3.5 % of vehicle control
[2]; HepG2
  GLO1-ARE transcription, normalised to positive control (blank = 0%, 10 μM trans-resveratrol = 100%): 13.0 ± 1.6%
[2]; HESP alone
  logistic regression coefficient n, GLO1-ARE response: 2.01±0.02
[2]; HepG2, compound alone
  Emax: 24.4 ± 0.1%
[2]; [9]
  EC50: 0.59 ± 0.01 µM
[1]
  NQO-1 - ARE transcription, normalised to positive control (blank = 0%, 10 μM trans-resveratrol = 100%): 7.9 ± 0.7%
Human BJ fibroblasts; BJ fibroblasts
  toxicity (cytotoxicity): no toxicity
Human BJ fibroblasts; HESP (40 μM) with and without 5 μM tRES
  viability of BJ cells in vitro: minor decrease
[3]
  cellular MMP-3 protein: increase
GSH
  cellular level of GSH: did not change
[4]
  cellular level of GSSG: did not change
ICAM1 mRNA; 5 μM HESP individually, 6 h post-treatment
  ICAM1 mRNA: tended to increased
[5]
  eriodictyol (demethylated HESP) in study samples: no eriodctyol (demethylated HESP), was detected
[6]
  peak plasma concentration of HESP: 6.7 µM
[7]
  safety assessments (tolerability): highly tolerated

## CN(C)C(=N)N=C(N)N [metformin]
[8]
  ΔOGIS: +54 mlmin^−1m^−2

## C[S+]([O-])CCCCN=C=S (stereo not drawn) [sulforaphane]
NQO-1 gene expression
  NQO-1 gene expression in human hair follicles: significantly up-regulates
HO-1 gene expression
  HO-1 gene expression in human hair follicles: significantly up-regulates
Human hair follicle
  human hair follicle growth: significantly up-regulates

## Oc1ccc(/C=C/c2cc(O)cc(O)c2)cc1 [trans-resveratrol]
[2]; 0.625 μM trans-resveratrol, 0 μM hesperetin, HepG2
  GLO1-ARE transcription, normalised to positive control: 4.0 ± 2.2%
[2]; 1.25 μM trans-resveratrol, 0 μM hesperetin, HepG2
  GLO1-ARE transcription, normalised to positive control: 19.2 ± 7.6%
[2]; 2.5 μM trans-resveratrol, 0 μM hesperetin, HepG2
  GLO1-ARE transcription, normalised to positive control: 53.8 ± 7.4%
[2]; HepG2
  GLO1-ARE transcription, normalised to positive control (blank = 0%, 10 μM trans-resveratrol = 100%): 67.6 ± 14.5%
[2]; 10 μM trans-resveratrol, 0 μM hesperetin (positive control = 100%), HepG2
  GLO1-ARE transcription, normalised to positive control: 100.0 ± 2.9%
[2]; 0.1-1.0 tRES in the presence of 5 μM HESP
  predicted increase of GLO1-ARE transcriptional response: 3-79 fold
[2]; 0.1-1.0 tRES in the presence of 5 μM HESP, predicted
  increased GLO1-ARE transcriptional response over additive effects: up to 79%
[2]; 0.625-10 μM tRES with 5 μM HESP
  Emax of tRES, GLO1-ARE response: maintaining the Emax
[2]; HepG2, 0.625-10 μM tRES with 5 μM HESP, read-out: EC50 of tRES for GLO1-ARE transcriptional response
  EC50: 1.46 ± 0.1 µM
[2]; HepG2, compound alone
  Emax: 100 ± 8.9%
[2]; [9]
  EC50: 2.52 ± 0.19 µM
[1]; 0.625 μM trans-resveratrol, 0 μM hesperetin
  NQO-1 - ARE transcription, normalised to positive control: 1.9 ± 8.6%
[1]; 1.25 μM trans-resveratrol, 0 μM hesperetin
  NQO-1 - ARE transcription, normalised to positive control: 6.4 ± 2.5%
[1]; 2.5 μM trans-resveratrol, 0 μM hesperetin
  NQO-1 - ARE transcription, normalised to positive control: 15.7 ± 6.7%
[1]
  NQO-1 - ARE transcription, normalised to positive control (blank = 0%, 10 μM trans-resveratrol = 100%): 58.0 ± 2.5% and 56.9 ± 1.7%
[1]; 10 μM trans-resveratrol, 0 μM hesperetin (positive control = 100%)
  NQO-1 - ARE transcription, normalised to positive control: 100.0 ± 10.0%
Human BJ fibroblasts; BJ fibroblasts
  toxicity (cytotoxicity): no toxicity
Human BJ fibroblasts; tRES (5 μM) with 0.625 μM HESP, BJ fibroblasts
  cell number: minor increase
Human BJ fibroblasts; tRES (40 μM) with 5 μM HESP
  viability of BJ cells in vitro: minor decrease
[3]
  cellular MMP-3 protein: decreases
GSH
  cellular level of GSH: did not change
[4]
  cellular level of GSSG: did not change
ICAM1 mRNA; 5 μM tRES individually, 48 h post-treatment
  ICAM1 mRNA: tended to increased
